Reference: patent US20250162995A1, “PHENTOLAMINE MESYLATE AND THERAPEUTIC USES THEREOF” (Opus Genetics, Inc., priority 2023, published 2025)
Counter-ions that a name gives are not always drawn.

Experiment: XRPD analysis of the solid form after further drying (form stability)
Assay type: physicochemical
Details: further dried at 0.24 bar and 25° C. for 16 hours
Protocol: Unless otherwise noted, XRPD data was collected using a PANanalytical EMPYREAN vs. 8.2 20201404 diffractometer with a Cu-Kα radiation (λ=1.541874 Å) source operating at 45 kV and 40 mA in transmission theta-theta configuration. Samples were scanned from 2° to 40° 2-theta with a step size of 0.013° 2-theta and a time per step of 78.795 sec. Data collection was performed with DATA COLLECTOR vs. 7.1 and processed with Data Viewer vs. 2.1 and Profex 5.2.4 software.
The phentolamine mesylate obtained according to this Example 4 was further dried at 0.24 bar and 25° C. for 16 hours.
The phentolamine mesylate obtained according to this Example 6 was further dried at 25° C. at 0.24 bar for 16 hours.
The phentolamine mesylate obtained according to this Example 7 was further dried at 0.24 bars at 25° C. for 16 hours.
The phentolamine mesylate obtained according to this Example 11 was further dried at 25° C. and 0.24 bar for 16 hours.
The phentolamine mesylate obtained according to this Example 12 was further dried at 25° C. and 0.24 bar for 16 hours.

Question: Which “solid form found by XRPD analysis of the further dried material” value (“solid form found by XRPD analysis” for short) does the source give for `Cc1ccc(N(CC2=NCCN2)c2cccc(O)c2)cc1` [Example 6, phentolamine mesylate] here?
Answer: Its value is “converted to the phentolamine mesylate obtained according to Example 1”.

Question: With `Cc1ccc(N(CC2=NCCN2)c2cccc(O)c2)cc1` [Example 4, phentolamine mesylate] as the molecule, how does the “solid form found by XRPD analysis” value read?
Answer: The value was “converted to a mixture of the phentolamine mesylate having XRPD peaks of Reference A and the phentolamine mesylate obtained according to Example 1”.

Question: For `Cc1ccc(N(CC2=NCCN2)c2cccc(O)c2)cc1` [Example 7, phentolamine mesylate], which “solid form found by XRPD analysis” value is on record?
Answer: The value was “converted to the phentolamine mesylate obtained according to Example 1”.

Question: For `Cc1ccc(N(CC2=NCCN2)c2cccc(O)c2)cc1` [Example 12, phentolamine mesylate], which “solid form found by XRPD analysis” value is on record?
Answer: The value was “converted to the phentolamine mesylate obtained according to Example 1”.

Question: With `Cc1ccc(N(CC2=NCCN2)c2cccc(O)c2)cc1` [Example 11, phentolamine mesylate] as the molecule, how does the “solid form found by XRPD analysis” value read?
Answer: The value was “converted to the phentolamine mesylate obtained according to Example 1”.
